Our source for the IC50 values is ChEMBL document CHEMBL5729526, “Substituted imidazolidin-2-one derivatives as PRMT5 inhibitors” (2023).

Structures are written as SMILES.

The target of the experiment is Protein arginine N-methyltransferase 5 (Homo sapiens, UniProt O14744). Description: TR-FRET Assay: Protein arginine methyltransferase 5 (PRMT5) is a type II arginine methyltransferase that catalyze mono- and symmetric […] on arginine residues of histone or non-histone proteins in presence of S-adenosylmethionine (AdoMet or SAM) a cofactor responsible for donating the methyl group. PRMT5 is reported to be overexpressed in several human cancers. To identify compounds that inhibit the PRMT5 and decrease its activity, a TR-FRET based assay has been established. Time-resolved fluorescence resonance energy transfer (TR-FRET) HTS assays are homogeneous proximity assays where the interaction of two dye-labeled binding partners is detected by the energy transfer between a donor and an acceptor dye, and the subsequent light emission by the acceptor dye. PRMT5 catalyzes Histone H4 peptide [1-16] which is biotin tagged to the Lysine amino acid at carboxyl end, in presence of S-adenosyl-1-methionine (SAM) to methylate the peptide. The antibody specific to mono methylated H4 peptide (H4R3) with Ig conjugate binds to the methylated peptide, indirectly binding to the Europium lanthanide. SureLight Allophycocyanin-Streptavidin binds to the biotin tag of the peptide, therefore accepting the energy transferred from the Europium lanthanide. This energy transfer between Europium to SureLight Allophycocyanin is a direct measure of the activity/inhibition of the PRMT5 enzyme. […]. A general note: TR-FRET usually uses a lanthanide donor and a delayed reading to cut background.
Protein arginine N-methyltransferase 5, sequence (O14744 whole entry): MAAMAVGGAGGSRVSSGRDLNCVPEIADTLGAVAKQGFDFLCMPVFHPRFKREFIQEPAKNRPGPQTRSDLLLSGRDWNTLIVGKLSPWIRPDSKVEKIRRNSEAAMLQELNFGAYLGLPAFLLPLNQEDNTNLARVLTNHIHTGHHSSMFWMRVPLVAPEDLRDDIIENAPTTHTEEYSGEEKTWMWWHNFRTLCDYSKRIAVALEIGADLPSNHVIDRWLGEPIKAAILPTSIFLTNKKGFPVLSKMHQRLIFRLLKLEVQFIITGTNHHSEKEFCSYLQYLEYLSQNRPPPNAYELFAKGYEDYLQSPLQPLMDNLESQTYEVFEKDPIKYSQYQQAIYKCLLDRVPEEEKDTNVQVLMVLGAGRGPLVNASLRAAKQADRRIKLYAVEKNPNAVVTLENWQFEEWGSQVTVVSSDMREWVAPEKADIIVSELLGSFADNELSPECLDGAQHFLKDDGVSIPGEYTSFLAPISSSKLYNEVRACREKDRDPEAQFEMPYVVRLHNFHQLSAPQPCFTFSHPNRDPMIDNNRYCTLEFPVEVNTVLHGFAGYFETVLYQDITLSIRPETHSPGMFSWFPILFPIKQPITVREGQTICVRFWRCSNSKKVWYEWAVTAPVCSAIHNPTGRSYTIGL

Turning to `O=C1N(Cc2cnc(-c3cccnc3)cn2)CCN1C[C@H](O)CN1CCc2ccccc2C1`, the IC50 (in general, the concentration at which inhibition is half-maximal) was determined as 0.053 µM.
